# US6737383B1, “Herbicidal oxadiazolidines” (priority 1999, dated 2004)
# Experiments:
# [1] = system: rice; test: Test B flood test rice; assay type: in vivo, Oryza sativa
# Outline: (§1)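 Flood test on plants grown to the 2-leaf stage; treated plants kept in greenhouse twelve to sixteen days, then visually rated against controls on a 0 (no effect) to 10 (complete control) scale.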
# [2] = system: bamyardgrass; test: Test B flood test barnyardgrass; assay type: in vivo, Echinochloa crus-galli
# Outline: as §1
# [3] = system: smallflower flatsedge; test: Test B flood test smallflower flatsedge; assay type: in vivo, Cyperus difformis
# Outline: as §1
# [4] = system: giant foxtail; test: Test B pre/postemergence giant foxtail; assay type: in vivo, Setaria faberii; conditions: for Giant foxtail plant response rating: Postemergence; for Plant response rating, Giant foxtail: Preemergence
# Outline: (§2)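 Herbicidal effect was estimated by eye on a ten-point control scale after plants spent twelve to sixteen days in a greenhouse following soil or foliar treatment. Foliar sprays targeted plants at one to four leaves; all doses were formulated in a non-phytotoxic solvent with surfactant.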
# [5] = system: surinam grass; test: Test B pre/postemergence surinam grass; assay type: in vivo, Brachiaria decumbens; conditions: for B. signalgrass plant response rating: Postemergence; for Plant response rating, B. signalgrass: Preemergence
# Outline: as §2
# [6] = system: sugar beet; test: Test B pre/postemergence sugar beet; assay type: in vivo, Beta vulgaris; conditions: for Sugarbeets plant response rating: Postemergence; for Plant response rating, Sugarbeets: Preemergence
# Outline: as §2
# [7] = system: blackgrass; test: Test B pre/postemergence blackgrass; assay type: in vivo, Alopecurus myosuroides; conditions: for Blackgrass plant response rating: Postemergence; for Plant response rating, Blackgrass: Preemergence
# Outline: as §2
# [8] = system: morningglory; test: Test B pre/postemergence morningglory; assay type: in vivo, Ipomoea hederacea; conditions: for Morningglory plant response rating: Postemergence; for Plant response rating, Morningglory: Preemergence
# Outline: as §2
# [9] = system: rape; test: Test B pre/postemergence rape; assay type: in vivo, Brassica napus; conditions: for Rape plant response rating: Postemergence; for Plant response rating, Rape: Preemergence
# Outline: as §2
# [10] = system: pigweed; test: Test B pre/postemergence pigweed; assay type: in vivo, Amaranthus retroflexus; conditions: for Redroot pigweed plant response rating: Postemergence; for Plant response rating, Redroot pigweed: Preemergence
# Outline: as §2
# [11] = system: velvetleaf; test: Test B pre/postemergence velvetleaf; assay type: in vivo, Abutilon theophrasti; conditions: for Velvetleaf plant response rating: Postemergence; for Plant response rating, Velvetleaf: Preemergence
# Outline: as §2
# [12] = system: bedstraw; test: Test B pre/postemergence bedstraw; assay type: in vivo, Galium aparine; conditions: Postemergence, Rate 1000 g/ha; scale 0 to 10 (0 no effect, 10 complete control)
# Outline: as §2
# [13] = system: cocklebur; test: Test B pre/postemergence cocklebur; assay type: in vivo, Xanthium strumarium; conditions: for Cocklebur plant response rating: Postemergence; for Plant response rating, Cocklebur: Preemergence
# Outline: as §2
# [14] = system: soybean; test: Test B pre/postemergence soybean; assay type: in vivo, Glycine max; conditions: for Soybean plant response rating: Postemergence; for Plant response rating, Soybean: Preemergence
# Outline: as §2
# [15] = system: wheat; test: Test B pre/postemergence wheat; assay type: in vivo, Triticum aestivum; conditions: for Wheat plant response rating: Postemergence; for Plant response rating, Wheat: Preemergence
# Outline: as §2
# [16] = system: crabgrass; test: Test B pre/postemergence crabgrass; assay type: in vivo, Digitaria sanguinalis; conditions: for Crabgrass plant response rating: Postemergence; for Plant response rating, Crabgrass: Preemergence
# Outline: as §2
# [17] = system: purple nutsedge; test: Test B pre/postemergence purple nutsedge; assay type: in vivo, Cyperus rotundus; conditions: for Nutsedge plant response rating: Postemergence; for Plant response rating, Nutsedge: Preemergence
# Outline: as §2
# [18] = system: corn; test: Test B pre/postemergence corn; assay type: in vivo, Zea mays; conditions: for Corn plant response rating: Postemergence; for Plant response rating, Corn: Preemergence
# Outline: as §2
# [19] = system: wild oat; test: Test B pre/postemergence wild oat; assay type: in vivo, Avena fatua; conditions: for Wild oats plant response rating: Postemergence; for Plant response rating, Wild oats: Preemergence
# Outline: as §2
# [20] = system: duck salad; test: Test B flood test duck salad; assay type: in vivo, Heteranthera limosa
# Outline: as §1
# [21] = Pre-emergence, Rate 1000 g/ha, scale 0 to 10 (0 no effect, 10 complete control)
# [22] = Rate 125 g/ha, under heading Pre-emergence, flood test species, visual evaluation after twelve to sixteen days
# [23] = Rate 250 g/ha, Pre-emergence (flood test species), scale 0 to 10, 0 is no effect, 10 is complete control
# [24] = Rate 500 g/ha, Pre-emergence section of Table B, 0 to 10 scale (0 no effect, 10 complete control)
# [25] = Rate 125 g/ha, scale of 0 to 10 where 0 is no effect and 10 is complete control
# [26] = Rate 1000 g/ha, scale 0 to 10 (0 no effect, 10 complete control)
# [27] = Rate 500 g/ha, scale of 0 to 10 where 0 is no effect and 10 is complete control
# [28] = Rate 250 g/ha, scale 0 to 10, 0 is no effect, 10 is complete control
# [29] = Rate 500 g/ha, scale 0 to 10, 0 is no effect, 10 is complete control
# [30] = Rate 250 g/ha, scale 0 to 10 (0 no effect, 10 complete control)
smiles,measurement,setting,value
COC(=O)C(c1ccccc1)n1c(=O)on(C(=O)N(c2ccc(F)cc2)C(C)C)c1=O (centres unmarked) [Compound 677],Rice plant response rating,[1]; [21],0
same,"Rice plant response rating (0 to 10 scale, 0 is no effect, 10 is complete control)",[1]; [22],0
same,Rice plant response rating,[1]; [23],0
same,Rice plant response rating,[1]; [24],0
same,Barnyardgrass plant response rating,[2]; [21],0
same,"Barnyardgrass plant response rating (0 to 10 scale, 0 is no effect, 10 is complete control)",[2]; [22],0
same,Barnyardgrass plant response rating,[2]; [23],0
same,Barnyardgrass plant response rating,[2]; [24],0
same,S. Flatsedge plant response rating,[3]; [21],0
same,"S. Flatsedge plant response rating (0 to 10 scale, 0 is no effect, 10 is complete control)",[3]; [22],0
same,S. Flatsedge plant response rating,[3]; [23],0
same,S. Flatsedge plant response rating,[3]; [24],0
same,Giant foxtail plant response rating,[4]; [25],0
same,Giant foxtail plant response rating,[4]; [26],5
same,"Plant response rating, Giant foxtail",[4]; [25],5
same,"Plant response rating, Giant foxtail",[4]; [27],10
same,Giant foxtail plant response rating,[4]; [28],2
same,Giant foxtail plant response rating,[4]; [29],4
same,"Plant response rating, Giant foxtail",[4]; [26],10
same,B. signalgrass plant response rating,[5]; [25],0
same,B. signalgrass plant response rating,[5]; [26],1
same,"Plant response rating, B. signalgrass",[5]; [25],0
same,"Plant response rating, B. signalgrass",[5]; [30],3
same,"Plant response rating, B. signalgrass",[5]; [27],5
same,B. signalgrass plant response rating,[5]; [28],0
same,B. signalgrass plant response rating,[5]; [29],0
same,"Plant response rating, B. signalgrass",[5]; [26],9
same,Sugarbeets plant response rating,[6]; [25],0
same,Sugarbeets plant response rating,[6]; [26],1
same,"Plant response rating, Sugarbeets",[6]; [25],0
same,"Plant response rating, Sugarbeets",[6]; [27],0
same,Sugarbeets plant response rating,[6]; [28],0
same,Sugarbeets plant response rating,[6]; [29],1
same,"Plant response rating, Sugarbeets",[6]; [26],7
same,Blackgrass plant response rating,[7]; [25],0
same,Blackgrass plant response rating,[7]; [26],4
same,"Plant response rating, Blackgrass",[7]; [25],0
same,"Plant response rating, Blackgrass",[7]; [30],0
same,"Plant response rating, Blackgrass",[7]; [27],0
same,Blackgrass plant response rating,[7]; [28],0
same,Blackgrass plant response rating,[7]; [29],1
same,"Plant response rating, Blackgrass",[7]; [26],4
same,Morningglory plant response rating,[8]; [25],2
same,"Plant response rating, Morningglory",[8]; [25],0
same,"Plant response rating, Morningglory",[8]; [27],0
same,Morningglory plant response rating,[8]; [28],4
same,Morningglory plant response rating,[8]; [29],7
same,"Plant response rating, Morningglory",[8]; [26],0
same,Rape plant response rating,[9]; [25],0
same,Rape plant response rating,[9]; [26],0
same,"Plant response rating, Rape",[9]; [25],0
same,"Plant response rating, Rape",[9]; [27],0
same,Rape plant response rating,[9]; [28],0
same,Rape plant response rating,[9]; [29],0
same,"Plant response rating, Rape",[9]; [26],3
same,Redroot pigweed plant response rating,[10]; [25],2
same,Redroot pigweed plant response rating,[10]; [26],4
same,"Plant response rating, Redroot pigweed",[10]; [25],4
same,Redroot pigweed plant response rating,[10]; [28],3
same,Redroot pigweed plant response rating,[10]; [29],3
same,"Plant response rating, Redroot pigweed",[10]; [26],8
same,Velvetleaf plant response rating,[11]; [25],0
same,Velvetleaf plant response rating,[11]; [26],3
same,"Plant response rating, Velvetleaf",[11]; [25],0
same,"Plant response rating, Velvetleaf",[11]; [27],0
same,Velvetleaf plant response rating,[11]; [28],0
same,Velvetleaf plant response rating,[11]; [29],3
same,"Plant response rating, Velvetleaf",[11]; [26],0
same,Bedstraw plant response rating,[12],0
same,Cocklebur plant response rating,[13]; [25],0
same,Cocklebur plant response rating,[13]; [26],1
same,"Plant response rating, Cocklebur",[13]; [25],0
same,"Plant response rating, Cocklebur",[13]; [30],0
same,"Plant response rating, Cocklebur",[13]; [27],0
same,Cocklebur plant response rating,[13]; [28],0
same,Cocklebur plant response rating,[13]; [29],1
same,"Plant response rating, Cocklebur",[13]; [26],0
same,Soybean plant response rating,[14]; [25],0
same,Soybean plant response rating,[14]; [26],7
same,"Plant response rating, Soybean",[14]; [25],0
same,"Plant response rating, Soybean",[14]; [27],0
same,Soybean plant response rating,[14]; [28],1
same,Soybean plant response rating,[14]; [29],2
same,"Plant response rating, Soybean",[14]; [26],0
same,Wheat plant response rating,[15]; [25],0
same,Wheat plant response rating,[15]; [26],0
same,"Plant response rating, Wheat",[15]; [25],0
same,"Plant response rating, Wheat",[15]; [27],0
same,Wheat plant response rating,[15]; [28],0
same,Wheat plant response rating,[15]; [29],0
same,"Plant response rating, Wheat",[15]; [26],0
same,Crabgrass plant response rating,[16]; [25],0
same,Crabgrass plant response rating,[16]; [26],6
same,"Plant response rating, Crabgrass",[16]; [25],3
same,"Plant response rating, Crabgrass",[16]; [30],6
same,"Plant response rating, Crabgrass",[16]; [27],7
same,Crabgrass plant response rating,[16]; [28],0
same,Crabgrass plant response rating,[16]; [29],4
same,"Plant response rating, Crabgrass",[16]; [26],9
same,Nutsedge plant response rating,[17]; [25],0
same,Nutsedge plant response rating,[17]; [26],0
same,"Plant response rating, Nutsedge",[17]; [25],0
same,"Plant response rating, Nutsedge",[17]; [27],0
same,Nutsedge plant response rating,[17]; [28],0
same,Nutsedge plant response rating,[17]; [29],0
same,"Plant response rating, Nutsedge",[17]; [26],0
same,Corn plant response rating,[18]; [25],0
same,Corn plant response rating,[18]; [26],0
same,"Plant response rating, Corn",[18]; [25],0
same,"Plant response rating, Corn",[18]; [30],0
same,"Plant response rating, Corn",[18]; [27],0
same,Corn plant response rating,[18]; [28],0
same,Corn plant response rating,[18]; [29],0
same,"Plant response rating, Corn",[18]; [26],0
same,Wild oats plant response rating,[19]; [25],0
same,Wild oats plant response rating,[19]; [26],0
same,"Plant response rating, Wild oats",[19]; [25],0
same,"Plant response rating, Wild oats",[19]; [27],0
same,Wild oats plant response rating,[19]; [28],0
same,Wild oats plant response rating,[19]; [29],0
same,"Plant response rating, Wild oats",[19]; [26],2
same,Ducksalad plant response rating,[20]; [21],0
same,"Ducksalad plant response rating (0 to 10 scale, 0 is no effect, 10 is complete control)",[20]; [22],0
same,Ducksalad plant response rating,[20]; [23],0
same,Ducksalad plant response rating,[20]; [24],0
